Target: T1, human CB2R (Homo sapiens, UniProt P34972)
T1 construct: host or cells: CHO cells
Test: CB2R mediated modulation of cAMP synthesis
Type: cell-based
Settings: CB2 EC50 (nM), CHO cells expressing human CB2R; inhibition of forskolin-stimulated cAMP synthesis; agonist
Description: B. CB2R Mediated Modulation of cAMP Synthesis:
Compounds of the invention were evaluated for their CB2 agonist or inverse agonistic activity in accordance with the following experimental method.
CHO cells expressing human CB2R (Euroscreen) were plated at a density of 5000 cells per well in 384 well plates and incubated overnight at 37° C. After removing the media, the cells were treated with test compounds diluted in stimulation buffer containing 1 mM IBMX, 0.25% BSA and 10 uM Forskolin. The assay was incubated for 30 minutes at 37° C. Cells were lysed and the cAMP concentration was measured using DiscoverX-XS cAMP kit, following the manufacturer's protocol. In this setting, agonists will decrease forskolin induced production of cAMP while inverse agonists will further increase forskolin induced production of cAMP. EC50 of agonists were calculated as follows. The maximal amount of cAMP produced by forskolin compared to the level of cAMP inhibited by 1 uM CP55940 is defined as 100%. The EC50 value of each test compound was determined as the concentration at which 50% of the forskolin-stimulated cAMP synthesis was inhibited. Data was analyzed using a four-parameter logistic model. (Model 205 of XLfit 4.0).

T1 sequence (P34972 whole entry): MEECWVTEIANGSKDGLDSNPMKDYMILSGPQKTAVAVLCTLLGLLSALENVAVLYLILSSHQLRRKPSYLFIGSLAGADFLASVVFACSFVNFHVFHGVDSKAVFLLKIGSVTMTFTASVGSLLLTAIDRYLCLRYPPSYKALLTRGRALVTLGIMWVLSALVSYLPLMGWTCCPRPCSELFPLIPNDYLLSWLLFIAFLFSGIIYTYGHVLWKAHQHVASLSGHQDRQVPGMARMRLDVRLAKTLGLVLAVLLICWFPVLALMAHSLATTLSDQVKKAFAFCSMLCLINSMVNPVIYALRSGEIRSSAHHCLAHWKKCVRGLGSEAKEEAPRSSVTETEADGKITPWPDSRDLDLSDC

| Compound | EC50 |
| --- | --- |
| CC(C)(C)c1coc(NC(=O)[C@@H]2CCN2C2CCOCC2)n1 | 206 nM |
| O=C(Nc1nc2cc(Cl)ccc2s1)[C@@H]1CCN1C1CCOCC1 | 86 nM |
| O=C(Nc1nc(C2CCCCC2)cs1)[C@@H]1CCN1C1CCOCC1 | 56 nM |
| CC(C)(C)c1cc(NC(=O)[C@@H]2CCN2C2CCOCC2)sn1 | 313 nM |
| CC(C)(C)c1nsc(NC(=O)[C@@H]2CCN2C2CCOCC2)n1 | 471 nM |
| O=C(Nc1nc(-c2ccc(F)c(F)c2)cs1)[C@@H]1CCN1C1CCOCC1 | 203 nM |
| O=C(Nc1nc2c(F)cccc2s1)[C@@H]1CCN1C1CCOCC1 | 153 nM |
| CC(C)(C)Cc1cc(NC(=O)[C@@H]2CCN2C2CCOCC2)on1 | 243 nM |
| CCc1sc(NC(=O)[C@@H]2CCN2c2ncc(C(F)(F)F)cc2Cl)nc1-c1ccccc1 | 2.7 nM |
| CCc1sc(NC(=O)[C@@H]2CCN2CC2CCOCC2)nc1-c1ccccc1 | 4.1 nM |
| CCc1sc(NC(=O)[C@@H]2CCN2C2CCOCC2)nc1-c1ccccc1 | 116 nM |
| CCc1sc(NC(=O)[C@@H]2CCN2c2ccc(C(F)(F)F)cn2)nc1-c1ccccc1 | 128 nM |
| CC(C)(C)c1cc(NC(=O)[C@@H]2CCN2c2ccc(C(F)(F)F)cn2)on1 | 0.67 nM |
| CC(C)(C)c1cc(NC(=O)[C@@H]2CCN2c2ccc(Cl)cc2)no1 | 1.7 nM |
| CC(C)(C)c1cc(NC(=O)[C@@H]2CCN2c2ccc(Cl)cc2)on1 | 0.75 nM |
| O=C(Nc1cc(C(F)(F)F)no1)[C@@H]1CCN1c1ccc(Cl)cc1 | 43 nM |
| CC(C)N1CC[C@H]1C(=O)Nc1cc(C(C)(C)C)no1 | 26 nM |
| CC(C)(C)c1cc(NC(=O)[C@@H]2CCN2C2CCCC2)on1 | 6.6 nM |
| CC(C)(C)c1cc(NC(=O)[C@@H]2CCN2C2CCCCC2)on1 | 0.08 nM |

| Compound | EC50 |
| --- | --- |
| CC(C)(C)c1cc(NC(=O)[C@@H]2CCN2Cc2ccc(F)c(F)c2)on1 | 14 nM |
| CC(C)(C)c1cc(NC(=O)[C@@H]2CCN2S(=O)(=O)c2ccc(S(C)(=O)=O)cc2)no1 | 197 nM |
| CCCS(=O)(=O)N1CC[C@H]1C(=O)Nc1cc(C(C)(C)C)on1 | 157 nM |
| CC(C)(C)c1cc(NC(=O)[C@@H]2CCN2S(=O)(=O)c2ccc(S(C)(=O)=O)cc2)on1 | 357 nM |
| COCC(C)(C)c1cc(NC(=O)[C@@H]2CCN2c2ccc(Cl)cc2)no1 | 12 nM |
| CC(C)(C)c1cc(NC(=O)[C@@H]2CC(=O)N2c2ccc(Cl)cc2)on1 | 17 nM |
| CC(C)(C)c1cc(NC(=O)[C@@H]2CC(=O)N2c2ccc(Cl)cc2)no1 | 50 nM |
| CC(C)(CO)c1cc(NC(=O)[C@@H]2CCN2c2ncc(C(F)(F)F)cc2Cl)on1 | 0.12 nM |
| CC(C)(CO)c1cc(NC(=O)[C@@H]2CCN2c2ccc(C(F)(F)F)cn2)on1 | 18 nM |
| CC(C)(CO)c1cc(NC(=O)[C@@H]2CCN2c2ccc(Cl)cc2)on1 | 18 nM |
| CC(C)(CO)c1cc(NC(=O)[C@@H]2CCN2c2ccc(F)cc2)on1 | 22 nM |
| COCC(C)(C)c1cc(NC(=O)[C@@H]2CCN2c2ccc(F)cc2)no1 | 7.7 nM |
| COCC(C)(C)c1cc(NC(=O)[C@@H]2CCN2c2ccc(F)cc2)on1 | 5.6 nM |
| COCC(C)(C)c1cc(NC(=O)[C@@H]2CCN2C2CCOCC2)on1 | 75 nM |
| CC(C)(C)c1cc(NC(=O)[C@@H]2CCN2c2ncc(C(F)(F)F)cc2Cl)no1 [drawing 125] | 0.02 nM |
| CC(C)(C)c1cc(NC(=O)[C@@H]2CCN2c2ncc(C(F)(F)F)cc2Cl)no1 [drawing 126] | 0.05 nM |
| CC(C)(C)c1cc(NC(=O)[C@@H]2CCN2C2CCOCC2)no1 [drawing 128] | 8.8 nM |
| CC(C)(C)c1cc(NC(=O)[C@@H]2CCN2C2CCOCC2)no1 [drawing 132] | 18 nM |

Same assay, conditions: CHO cells expressing human CB2R; inhibition of forskolin-stimulated cAMP synthesis; agonist; read-out: CB2 EC50

| Compound | EC50 |
| --- | --- |
| O=C(Nc1nc(-c2ccccc2)cs1)[C@@H]1CCN1C1CCOCC1 | 465 nM |
| O=C(Nc1ccc(C(F)(F)F)c(F)c1)[C@@H]1CCN1C1CCOCC1 | 371 nM |
| CC(C)(C)c1cc(NC(=O)[C@@H]2CCN2C(=O)C2CCC(F)(F)CC2)no1 | 127 nM |

From US8383615B2, “Azetidine 2-carboxamide derivatives which modulate the CB2 receptor” (Boehringer Ingelheim International GmbH, priority 2009, dated 2013)
